# Measurements reported in patent US9555038B2, “Heterocycle-substituted tetracyclic compounds and methods of use thereof for the treatment of viral diseases” (Merck Sharp & Dohme Corp., priority 2013, dated 2017).
# Like-named read-outs stand apart in the source and are kept apart here.
# Columns and labels:
# HCV replicon 1A = test: Cell-based HCV Replicon Assay A, replicon 1A
# Summary of the method: (§1)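 HCV replicon RNA levels are measured by multiplexed real-time RT-PCR, with cyclophilin as internal control, after 3 days of compound exposure. Compounds are tested in 10 serial dilutions starting between 333.3 nM and 1.667 nM, with 5% FBS in the medium.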
# HCV replicon 1AY93H = test: Cell-based HCV Replicon Assay A, replicon 1AY93H
# Summary of the method: as §1
# HCV replicon 1AQ30D = test: Cell-based HCV Replicon Assay B, replicon 1AQ30D
# Protocol: In an alternate assay (“Replicon Assay B”), 1000 cells were seeded per well in a 384-well collagen coated black plate from Greiner bio-one (Cat #781946) in 5% FBS. Inhibitors of this invention were added at 24 h post-seeding, and the plates were incubated for 3 days. Cells were subsequently lysed with Qiagen lysis buffer (Cat #1062731) to extract the RNA. HCV replicon RNA level was measured by real-time PCR using the RNA-to-CT kit from Applied Biosystem (Cat #4392656) and genotype-specific primers and probes. The amplicon was located within NS5B. The sequence of the PCR primers are as follows: 5B.2F, ATGGACAGGCGCCCTGA (SEQ. ID NO. 1); 5B.2R, […] (SEQ. ID NO. 2); the probe sequence was FAM-labeled CACGCCATGCGCTGCGG (SEQ. ID NO. 3). To detect genotype 1A the primer 1A F, TGCGGAACCGGTGAGTACA and 1A R, […] were used; the probe sequence was FAM-[…].
# The real-time RT-PCR reactions were run on ABI PRISM 7900HT or Viia7 Sequence Detection System using the following program: 48° C. for 30 minutes, 95° C. for 10 minutes, 40 cycles of 95° C. for 15 sec, 60° C. for 1 minutes. The 50% effective concentration (EC50) was the drug concentration necessary to achieve an increase in the cycle threshold (CT) of 1 over the projected baseline CT.
# Data was obtained for various compounds of the present invention using the methods described in the Example above, and is presented in the table immediately below. Data for replicons 1A, 1AY93H and 2B were obtained using Replicon Assay A and data for replicons 1AQ30D and 1B were obtained using Replicon Assay B.
# HCV replicon 2B = test: Cell-based HCV Replicon Assay A, replicon 2B
# Summary of the method: as §1
# HCV replicon 1B = test: Cell-based HCV Replicon Assay B, replicon 1B
# Summary of the method: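 Replicon cells seeded in 5% FBS; compounds added 24 h later, then 3 days' incubation. Replicon RNA quantified by real-time RT-PCR with genotype-specific primers/probes (NS5B amplicon for 1b). EC50 = concentration raising CT by 1 over projected baseline.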
# [1] = Hepatitis C virus, read-out: 1A Y93H IC50 (nM), replicon 1AY93H
# [2] = Hepatitis C virus, read-out: 1A Q30D IC50 (nM), replicon 1AQ30D
# [3] = Hepatitis C virus, read-out: 2B IC50 (nM), replicon 2B
# [4] = read-out: 1A Y93H IC50, replicon 1AY93H
# [5] = read-out: 1A Q30D IC50, replicon 1AQ30D
SMILES,IC50 (HCV replicon 1A; Hepatitis C virus),IC50 (HCV replicon 1AY93H; [1]),IC50 (HCV replicon 1AQ30D; [2]),IC50 (HCV replicon 2B; [3]),IC50 (HCV replicon 1B; Hepatitis C virus),IC50 (HCV replicon 1AY93H; [4]),IC50 (HCV replicon 1AQ30D; [5]),"IC50 (HCV replicon 2B; read-out: 2B IC50, replicon 2B)",IC50 (HCV replicon 1B),IC50 (HCV replicon 1A),"IC50 (HCV replicon 1AQ30D; replicon 1AQ30D, read-out: 1A Q30D IC50)"
"COC(=O)NC(C(=O)N1[C@@H]2C[C@@H]2C[C@H]1c1ncc(-c2ccc3c(c2)cc2n3C(c3cnc(C4CC4)s3)Oc3cc(-c4cnc([C@@H]5CC6CC6N5C(=O)[C@@H](NC(=O)OC)C(C)C)[nH]4)cc(F)c3-2)[nH]1)C1CCOC(C)(C)C1 (single isomer, unassigned) [Compound 110]",0.0033 nM,0.003 nM,0.027 nM,0.007 nM,0.004 nM,,,,,,
"COC(=O)N[C@H](C(=O)N1CCC[C@H]1c1ncc(-c2cc(F)c3c(c2)OC(c2cnc(Oc4ccc(F)cc4)s2)n2c-3cc3cc(-c4cnc([C@@H]5CCCN5C(=O)[C@@H](NC(=O)OC)C(C)C)[nH]4)ccc32)[nH]1)C(C)C (single isomer, unassigned) [Compound 50]",,,,,,0.119 nM,1.22 nM,0.158 nM,0.001 nM,,
"COC(=O)NC(C(=O)N1CCC[C@H]1c1ncc(-c2ccc3c(c2)cc2n3C(c3cnc(C4CC4)s3)Oc3cc(-c4cnc([C@@H]5CCCN5C(=O)[C@@H](NC(=O)OC)C(C)C)[nH]4)cc(F)c3-2)[nH]1)C1C[C@@H](C)O[C@H](C)C1 (single isomer, unassigned) [Compound 305]",,,,,,0.0031 nM,0.015 nM,,0.004 nM,0.003 nM,
"CCCc1ncc(C2Oc3cc(-c4cnc([C@@H]5CCCN5C(=O)[C@@H](NC(=O)OC)C(C)C)[nH]4)cc(F)c3-c3cc4cc(-c5cnc([C@@H]6C[C@H]7C[C@H]7N6C(=O)C(NC(=O)OC)C6CCOC(C)(C)C6)[nH]5)ccc4n32)s1 (single isomer, unassigned) [Compound 105]",,,,,,0.0029 nM,0.017 nM,,0.004 nM,0.0022 nM,
COC(=O)N[C@H](C(=O)N1CCC[C@H]1c1ncc(-c2cc(F)c3c(c2)OC(c2cnc(-c4cccnc4)s2)n2c-3cc3cc(-c4cnc([C@@H]5CCCN5C(=O)[C@@H](NC(=O)OC)C(C)C)[nH]4)ccc32)[nH]1)C(C)C (mixture of isomers) [Compound 422],0.021 nM,,1.67 nM,35.2 nM,0.015 nM,,,,,,
"COCc1ncc(C2Oc3cc(-c4cnc([C@@H]5CCCN5C(=O)[C@@H](NC(=O)OC)C(C)C)[nH]4)cc(F)c3-c3cc4cc(-c5cnc([C@@H]6CCCN6C(=O)[C@@H](NC(=O)OC)C(C)C)[nH]5)ccc4n32)s1 (single isomer, unassigned) [Compound 18]",,,0.072 nM,,,0.0069 nM,,0.016 nM,0.001 nM,,
"COC(=O)N[C@H](C(=O)N1CCC[C@H]1c1ncc(-c2cc(F)c3c(c2)OC(c2cnc(C4CC4)s2)n2c-3c(F)c3cc(-c4cnc([C@@H]5CCCN5C(=O)[C@@H](NC(=O)OC)C(C)C)[nH]4)ccc32)[nH]1)C(C)C (single isomer, unassigned) [Compound 21]",,,0.494 nM,,0.004 nM,0.0177 nM,,0.012 nM,,,
"COC(=O)N[C@H](C(=O)N1CCC[C@H]1c1ncc(-c2cc(F)c3c(c2)OC(c2ncc(-c4ccc(C#N)cc4)s2)n2c-3cc3cc(-c4cnc([C@@H]5CCCN5C(=O)[C@@H](NC(=O)OC)C(C)C)[nH]4)ccc32)[nH]1)C(C)C (single isomer, unassigned) [Compound 44]",,,,,,0.103 nM,0.778 nM,0.054 nM,0.002 nM,,
"COC(=O)NC(C(=O)N1CCC[C@H]1c1ncc(-c2ccc3c(c2)cc2n3C(c3cnc(C4CCC4)s3)Oc3cc(-c4cnc([C@@H]5CCCN5C(=O)[C@@H](NC(=O)OC)C(C)C)[nH]4)cc(C)c3-2)[nH]1)C1C[C@@H](C)O[C@H](C)C1 (single isomer, unassigned) [Compound 220]",0.004 nM,0.01 nM,0.046 nM,,0.005 nM,,,,,,
COC(=O)N[C@H](C(=O)N1CCC[C@H]1c1ncc(-c2cc(F)c3c(c2)OC(c2cnc(C4(C)CCOCC4)s2)n2c-3cc3cc(-c4cnc([C@@H]5CCCN5C(=O)[C@@H](NC(=O)OC)C(C)C)[nH]4)ccc32)[nH]1)C(C)C (mixture of isomers) [Compound 456],,0.021 nM,0.559 nM,0.316 nM,0.0027 nM,,,,,,
"COC(=O)N[C@H](C(=O)N1CCC[C@H]1c1ncc(-c2cc(F)c3c(c2)OC(c2csc(C4CC4)n2)n2c-3cc3cc(-c4cnc([C@@H]5CCCN5C(=O)[C@@H](NC(=O)OC)C(C)C)[nH]4)ccc32)[nH]1)C(C)C (single isomer, unassigned) [Compound 433]",,,1.6 nM,,,0.06 nM,,0.3 nM,0.001 nM,,
"COC(=O)N[C@H](C(=O)N1CCC[C@H]1c1ncc(-c2cc(F)c3c(c2)OC(c2cnc(C(C)C)s2)n2c-3cc3cc(-c4cnc([C@@H]5CCCN5C(=O)[C@@H](NC(=O)OC)C(C)C)[nH]4)ccc32)[nH]1)C(C)C (single isomer, unassigned) [Compound 86]",,0.0063 nM,0.187 nM,,0.002 nM,,,0.028 nM,,,
COC(=O)NC(C(=O)N1C(c2ncc(-c3cc(F)c4c(c3)OC(c3cnc(C5CC5)s3)n3c-4cc4cc(-c5cnc(C6CC7(C)CC7N6C(=O)C(NC(=O)OC)C(C)C)[nH]5)ccc43)[nH]2)CC2(C)CC12)C(C)C (stereo not shown) [Compound 533],,,,,,,,,0.0196 nM,0.0262 nM,2.52 nM
"COC(=O)N[C@H](C(=O)N1CCC[C@H]1c1ncc(-c2cc(F)c3c(c2)OC(c2cnc(Oc4ccc(F)cc4)s2)n2c-3cc3cc(-c4cnc([C@@H]5CCCN5C(=O)[C@@H](NC(=O)OC)C(C)C)[nH]4)ccc32)[nH]1)C(C)C (single isomer, unassigned) [Compound 49]",0.001 nM,,,,0.002 nM,,0.029 nM,0.002 nM,,,
"COC(=O)NC(C(=O)N1CCC[C@H]1c1ncc(-c2ccc3c(c2)cc2n3C(c3cnc(C(C)(C)O)s3)Oc3cc(-c4cnc([C@@H]5CCCN5C(=O)[C@@H](NC(=O)OC)C(C)C)[nH]4)cc(F)c3-2)[nH]1)C1C[C@@H](C)O[C@@H](C)C1 (single isomer, unassigned) [Compound 73]",0.0057 nM,,,,0.005 nM,0.586 nM,,0.146 nM,,,
"COC(=O)NC(C(=O)N1CCC[C@H]1c1ncc(-c2ccc3c(c2)cc2n3C(c3cnc(C(C)(C)C)s3)Oc3cc(-c4cnc([C@@H]5CCCN5C(=O)[C@@H](NC(=O)OC)C(C)C)[nH]4)cc(F)c3-2)[nH]1)C1CCOC(C)(C)C1 (single isomer, unassigned) [Compound 316]",,,,,,0.0162 nM,,0.012 nM,0.004 nM,0.0011 nM,
"COC(=O)NC(C(=O)N1[C@@H]2C[C@@H]2C[C@H]1c1ncc(-c2ccc3c(c2)cc2n3C(c3cnc(C4CC4)s3)Oc3cc(-c4cnc([C@@H]5CCCN5C(=O)[C@@H](NC(=O)OC)C(C)C)[nH]4)cc(F)c3-2)[nH]1)C1CCOC(C)(C)C1 (single isomer, unassigned) [Compound 313]",0.0032 nM,0.231 nM,,,0.045 nM,,,0.122 nM,,,
"COC(=O)N[C@H](C(=O)N1CCC[C@H]1c1ncc(-c2cc(F)c3c(c2)OC(c2sc(C(C)C)nc2C)n2c-3cc3cc(-c4cnc([C@@H]5CCCN5C(=O)[C@@H](NC(=O)OC)C(C)C)[nH]4)ccc32)[nH]1)C(C)C (single isomer, unassigned) [Compound 515]",0.0013 nM,4.45 nM,,1.84 nM,0.0029 nM,,,,,,
"COC(=O)N[C@H](C(=O)N1CCC[C@H]1c1ncc(-c2cc(F)c3c(c2)OC(c2cnc(C(C)(C)C)s2)n2c-3cc3cc(-c4cnc([C@@H]5CCCN5C(=O)[C@@H](NC(=O)OC)C(C)C)[nH]4)ccc32)[nH]1)C(C)C (single isomer, unassigned) [Compound 303]",,,,,,0.0475 nM,,0.942 nM,0.003 nM,0.0026 nM,
"COC(=O)N[C@H](C(=O)N1CCC[C@H]1c1ncc(-c2cc(F)c3c(c2)OC(c2nc4c(s2)CCCC4)n2c-3cc3cc(-c4cnc([C@@H]5CCCN5C(=O)[C@@H](NC(=O)OC)C(C)C)[nH]4)ccc32)[nH]1)C(C)C (single isomer, unassigned) [Compound 88]",,,,,,,0.415 nM,,,0.0028 nM,
COC(=O)N[C@H](C(=O)N1CCC[C@H]1c1nc(-c2cc(F)c3c(c2)OC(c2cnc(C4CCCCC4)s2)n2c-3cc3cc(-c4cnc([C@@H]5CCCN5C(=O)[C@@H](NC(=O)OC)C(C)C)[nH]4)ccc32)c[nH]1)C(C)C (stereo partly shown) [Compound 415],0.0016 nM,2.88 nM,,1.43 nM,0.002 nM,,,,,,
